# US20250195553A1, “Use of Genipin-1-B-D-Gentiobioside in Preparation of Drug” (Guizhou Bailing Group Pharmaceutical Co., Ltd., priority 2023, published 2025)
# Read-outs that look alike come from different tables or passages of the source.
# Columns and labels:
# [1] = test system: Mycoplasma Pneumoniae (MP); assay: Mycoplasma pneumoniae-infected mouse pneumonia model: lung index; type: in vivo, BALB/C mice; parameters: First Batch Inhibition Rate: unit not given here
# [2] = test system: Mycoplasma Pneumoniae (MP); assay: Inflammatory factors in lung tissue of MP-infected mice (ELISA); type: in vivo, BALB/C mice; conditions: 42 mg/kg
# Method: […] Each group consisted of 10 mice, with an equal number of males and females. Except for the normal control group, all mice were lightly anesthetized with isoflurane and infected intranasally with Mycoplasma Pneumoniae (50 μl per mouse) for three consecutive days. On the day of infection, each treatment group received nebulized medication once daily for four consecutive days, while the normal control group and model control group received nebulized saline under the same conditions. On the fifth day, the mice were weighed, sacrificed by cervical dislocation, and their lung tissues were dissected, weighed, and used to calculate the lung index and lung index inhibition rate; measure the levels of inflammatory factors in the lung tissue; measure the serum CRP levels; and conduct pathological examinations of the lung tissue. The results were statistically analyzed using the t-test for intergroup comparisons.
# (1) Sample Collection and Storage: Tissue Homogenate Samples: After weighing, lung tissues were collected from 8 mice in each group and stored at −80° C. The MP Fastprep-24 5G Rapid Sample Preparation System was used to homogenize the tissues, followed by centrifugation at […] and 3000 r/min for 10 minutes using a low-temperature high-speed centrifuge. The supernatant was then aspirated, aliquoted, and stored at −80° C. for future use, avoiding repeated freeze-thaw cycles.
# (2) The microplate, which had been equilibrated to room temperature, was removed from the sealed bag. Different concentrations of standards were added to the corresponding wells, with 50 μL per well. For experimental samples, 10 μL of sample was added to each well, followed by 40 μL of diluent. Except for the blank wells, 100 μL of HRP (Horseradish Peroxidase) was added to each well. The reaction wells were sealed with sealing tape and incubated at 37° C. for 1 hour. The plate was then washed with wash buffer four times. After the final wash, the plate was inverted and all residual liquid was patted dry on absorbent paper. 50 μL of both Substrate A and Substrate B were added to each well. The reaction wells were then sealed with sealing tape and incubated at 37° C. for 15 minutes. After that, 50 μL of stop solution was added to each well, and the absorbance at 450 nm was measured using a microplate reader within 15 minutes. The results were then calculated.
# [3] = test system: Mycoplasma Pneumoniae (MP); assay: Pathological changes in lung tissue of MP-infected mice (HE staining); type: in vivo, BALB/C mice; parameters: Alveolitis Lesion Degree / Bronchial Damage / Histological Damage Degree: scale not given here; conditions: Azithromycin Group
# Method: Fifty BALB/C mice, weighing 14±1 g, were randomly divided into five groups: a normal control group, a model control group, an azithromycin control group, a high-dose Genipin-1-β-D-gentiobioside group (75 mg/ml) with 15-minute nebulization, and a low-dose Genipin-1-β-D-gentiobioside group (37.5 mg/ml) with 15-minute nebulization. Each group consisted of 10 mice, with an equal number of males and females. Except for the normal control group, all mice were lightly anesthetized with isoflurane and infected intranasally with Mycoplasma Pneumoniae (50 μl per mouse) for three consecutive days. On the day of infection, each treatment group received nebulized medication once daily for four consecutive days, while the normal control group and model control group received nebulized saline under the same conditions. On the fifth day, the mice were weighed, sacrificed by cervical dislocation, and their lung tissues were dissected, weighed, and used to calculate the lung index and lung index inhibition rate; measure the levels of inflammatory factors in the lung tissue; measure the serum CRP levels; and conduct pathological examinations of the lung tissue. The results were statistically analyzed using the t-test for intergroup comparisons.
# 2.4 Pathological Changes in Mouse Lung Tissue (HE Staining Method)
# [4] = test system: Lipopolysaccharide (LPS)-induced pneumonia model in mice; assay: LPS-induced pneumonia model in mice, intravenous injection: lung index; type: in vivo, ICR mice; conditions: 50 mg/kg i.v. once daily 2 days
# Method: (§1) Sixty healthy mice, weighing 18˜20 g, half male and half female, were selected and randomly grouped after stratification by weight; they were divided into a normal control group, a model control group, three Genipin-1-β-D-gentiobioside dose groups (150 mg/kg/d, 75 mg/kg/d, 37.5 mg/kg/d), and a positive control drug Sivelestat Sodium 50 mg/kg/d group, with 10 mice in each group, half male and half female. After grouping, each treatment group was administered intravenously at 20 ml/kg once daily for 2 consecutive days, while the normal control group and model control group were injected with physiological saline. One hour after the second dose, except for the normal control group, the other groups were lightly anesthetized with isoflurane, and a 20 mg/ml LPS physiological saline solution was administered intranasally to the mice at 0.05 ml/mouse to induce the pneumonia model. Six hours after infection, the animals were sacrificed, dissected, and their lungs were removed and weighed to calculate the lung index (lung index=lung weight/body weight×100%).
# [5] = test system: Lipopolysaccharide (LPS)-induced pneumonia model in mice; assay: Inflammatory factors in lung tissue of LPS-induced pneumonia mice (ELISA); type: in vivo, ICR mice; conditions: dosage 50 (mg/ml), i.v.
# Method: as §1
# (1) Sample Collection and Storage: Tissue homogenate samples: The lung tissues of mice were collected and weighed, including those from mice numbered 1, 2, 3, 6, 7, and 8 in each group. The tissues were stored at […] An ultrasonic cell disruptor was used to homogenize the tissues, followed by centrifugation at […] and 1000 r/min for 10 minutes using a low-temperature high-speed centrifuge. The supernatant was then collected, aliquoted, and stored at −80° C. for future use, avoiding repeated freeze-thaw cycles.
# (2) The microwell plate, which had been equilibrated to room temperature, was removed from the sealed bag. Different concentrations of standards, experimental samples, or quality control samples were added to the corresponding wells, with 100 μL per well. The reaction wells were sealed with sealing tape and incubated at room temperature for 2 hours. The plate was then washed with wash buffer, repeating the operation four times. After the final wash, the plate was inverted and all residual liquid was patted dry on absorbent paper. Next, 100 μL of enzyme-labeled detection antibody was added to each microwell. The reaction wells were sealed again with sealing tape and incubated at room temperature for another 2 hours. The washing step was repeated as described above. Then, 100 μL of substrate solution was added to each microwell and incubated at room temperature for 30 minutes, protected from light. Within 30 minutes after adding 100 μL of stop solution to each microwell, the absorbance at 450 nm was measured using a microplate reader. The results were then calculated.
# [6] = test system: Human Coronavirus OC43 (HCoV-OC43); type: in vivo; conditions: mouse, in vivo
# [7] = test system: Human Coronavirus OC43 (HCoV-OC43); type: in vivo; conditions: 90 mg/kg administration by gavage
# [8] = test system: Human Respiratory Syncytial Virus (RSV); assay: RSV viral load in mouse lung tissue (RT-PCR), nebulization; type: in vivo; conditions: dosage 82.5 (mg/ml), nebulization time 25 min
# Method: […] Each group consisted of 10 mice, with an equal number of males and females. Except for the normal control group, all mice were lightly anesthetized with isoflurane and infected with respiratory syncytial virus (RSV) via intranasal administration, with each mouse receiving 35 μl of the virus. On the day of infection, the treatment groups began inhalation administration. Each group received nebulization for 25 minutes once daily for four consecutive days. The normal control group and the model control group received nebulized saline under the same conditions. On the fifth day, after weighing, the mice were sacrificed by cervical dislocation, and their lung tissues were dissected, weighed, and used to calculate the lung index and lung index inhibition rate. The lung tissues were also retained for virus load, pathological examination, and inflammatory factor detection. The results were statistically analyzed using the t-test for intergroup comparisons.
# After dissecting the mice, the lung tissues were collected and stored in separate containers at −80° C. in a low-temperature freezer. The lung tissues were then removed from the −80° C. freezer and placed in a clean mortar. A small amount of liquid nitrogen was poured into the mortar, and the tissues were ground into powder using a pestle. The powder was collected in a 1.5 ml centrifuge tube, and 1 ml of TRIzol Reagent was immediately added. The tube was gently tapped at the bottom to mix the sample and ensure it was resuspended as soon as possible. The centrifuge tube was then placed horizontally at room temperature and incubated for 20 minutes. Next, it was centrifuged at 4° C. and 12,000 rpm for 10 minutes. The clear supernatant was transferred to a new 1.5 ml centrifuge tube, and 0.2 ml of chloroform was added. The tube was tightly capped, vigorously shaken for 15 seconds, and then incubated at room temperature for 2-3 minutes until the liquid separated into layers. After centrifuging at 4° C. and 12,000 rpm for 15 minutes, the transparent supernatant was carefully transferred to a new 1.5 ml centrifuge tube. Then, 0.5 ml of isopropanol was added, mixed well, and incubated at room temperature for 30 minutes. Following centrifugation at 4° C. and 12,000 rpm for 10 minutes, the supernatant was discarded. The precipitate was gently washed with 1 ml of 75% ethanol (to allow the white precipitate to float slightly), and then centrifuged at 4° C. and 7,500 rpm for 5 minutes. The supernatant was completely aspirated, and the RNA precipitate was briefly dried for 5-10 minutes. The precipitate was then dissolved in 20 μl of DEPC (Diethylpyrocarbonate)-treated water and stored in a −80° C. low-temperature freezer.
# Treatment of Control Nucleic Acid: DEPC-H2O was used as a negative control. For the positive control, a series of four concentrations were prepared by gradient dilution at 10^7, 10^6, 10^5, and 10^4 copies/ml.
# Reagent Preparation: Mix n×18 μl of RSV nucleic acid fluorescent PCR detection mixture, n×1 μl of internal control, and n×1 μl of RT-PCR enzyme (where n is the number of reaction tubes). Shake vigorously for a few seconds and centrifuge at 3000 rpm for a few seconds.
# Sample Addition: Dispense 20 μl of the above mixture into each PCR tube. Then, add 5 μl of sample nucleic acid extract, DEPC-H2O, and positive control to the respective PCR tubes. Tightly close the tube caps, centrifuge for a few seconds to ensure all liquids are at the bottom, and immediately proceed with PCR amplification.
# PCR Amplification: Place the reaction tubes in a quantitative fluorescent PCR instrument. Set the cycling parameters as follows: 45° C. for 10 minutes; 95° C. for 15 minutes; then 40 cycles of 95° C. for 15 seconds→60° C. for 60 seconds. Single-point fluorescent detection is performed at 60° C., with a reaction volume of 25 μl.
# Fluorescent Channel Selection: Select the FAM and HEX/VIC/JOE channels for detection. […]
# [9] = 42 mg/kg administration by gavage, first batch
# [10] = 42 mg/kg administration by gavage
smiles,measurement,setting,value
"CC[C@H]1OC(=O)[C@H](C)[C@@H](O[C@H]2C[C@@](C)(OC)[C@@H](O)[C@H](C)O2)[C@H](C)[C@@H](O[C@@H]2O[C@H](C)C[C@H](N(C)C)[C@H]2O)[C@](C)(O)C[C@@H](C)CN(C)[C@H](C)[C@@H](O)[C@]1(C)O [Azithromycin, azithromycin, reference compound]",First Batch Inhibition Rate,[1]; [9],65.93
same,First Batch Lung Index,[1]; [9],0.77 ± 0.05
same,Second Batch Inhibition Rate,[1]; [10],98.72
same,Second Batch Lung Index,[1]; [10],0.62 ± 0.09
same,Second Batch Inhibition Rate,[1]; injection administration,98.26
same,Second Batch Lung Index,[1]; injection administration,0.62 ± 0.06
same,Inflammatory Factor Levels in Lung Tissue IL-1β,[2],144.98 ± 15.93 pg/mL
same,Inflammatory Factor Levels in Lung Tissue IL-6,[2],85.26 ± 25.59 pg/mL
same,Inflammatory Factor Levels in Lung Tissue TNF-α,[2],345.86 ± 53.85 pg/mL
same,Alveolitis Lesion Degree,[3],59.70
same,Bronchial Damage,[3],54.80
same,Histological Damage Degree,[3],2.43 ± 0.32
same,Interstitial Inflammatory Cell Infiltration,[3],58.80
"CC(C)(C)C(=O)Oc1ccc(S(=O)(=O)Nc2ccccc2C(=O)NCC(=O)O)cc1 [Sivelestat Sodium, reference compound]",Inhibition Rate (lung index),[4],85.50
same,Lung Index,[4]; 6 h after LPS,0.86 ± 0.07 g/100 g body weight
same,Inflammatory Factor Levels in Lung Tissue IL-6,[5],15.79 ± 2.08 pg/mL
same,Inflammatory Factor Levels in Lung Tissue IL-10,[5],36.11 ± 4.87 pg/mL
same,Inflammatory Factor Levels in Lung Tissue TNF-α,[5],98.88 ± 11.21 pg/mL
"CCN(CC)CCCC(C)Nc1ccnc2cc(Cl)ccc12 (stereo not drawn) [Chloroquine, Chloroquine Phosphate, reference compound]",Inhibition Rate (lung index),[6],42.72%
same,Lung Index,[6],0.80 ± 0.05 g lung weight × 100 g/body weight
same,Inhibition Rate (lung index),[7],96.56%
same,Lung Index,[7],0.73 ± 0.11 g lung weight × 100 g/body weight
"NC(=O)c1ncn([C@@H]2O[C@H](CO)[C@@H](O)[C@H]2O)n1 [Ribavirin, reference compound]",Inhibition Rate (viral load),[8],69.54%
same,Viral Load in lung tissue,[8],17063.48 ± 16203.78 copies/ng
